Results from the NIST ThermoML archive (doi:10.1021/je060271a).
Numbers after ± are expanded uncertainties.

Settings: 343.15 K, Liquid, Vibrating tube method

CCCCCCCC(=O)OCC(COC(=O)CCCCCCC)(COC(=O)CCCCCCC)COC(=O)CCCCCCC [pentaerythritol tetraoctanoate]
Settings | mass density [kg/m3]
22002 kPa | 941.5 ± 1.2
22028 kPa | 941.4 ± 1.2
22054 kPa | 941.3 ± 1.2
22085 kPa | 941.4 ± 1.2
22111 kPa | 941.4 ± 1.2
22142 kPa | 941.5 ± 1.2
22168 kPa | 941.4 ± 1.2
22195 kPa | 941.6 ± 1.2
22221 kPa | 941.4 ± 1.2
22248 kPa | 941.5 ± 1.2
22280 kPa | 941.6 ± 1.2
22307 kPa | 941.6 ± 1.2
22338 kPa | 941.5 ± 1.2
22365 kPa | 941.8 ± 1.2
22392 kPa | 941.7 ± 1.2
22424 kPa | 941.7 ± 1.2
22451 kPa | 941.7 ± 1.2
22478 kPa | 941.5 ± 1.2
22510 kPa | 941.7 ± 1.2
22537 kPa | 941.7 ± 1.2
22564 kPa | 941.8 ± 1.2
22599 kPa | 941.9 ± 1.2
22626 kPa | 941.8 ± 1.2
22654 kPa | 941.9 ± 1.2
22682 kPa | 941.9 ± 1.2
22709 kPa | 941.7 ± 1.2
22742 kPa | 941.8 ± 1.2
22770 kPa | 941.8 ± 1.2
22798 kPa | 941.8 ± 1.2
22831 kPa | 942 ± 1.2
22858 kPa | 941.8 ± 1.2
22892 kPa | 941.9 ± 1.2
22920 kPa | 941.9 ± 1.2
22949 kPa | 942 ± 1.2
23008 kPa | 942 ± 1.2
23042 kPa | 941.9 ± 1.2
23070 kPa | 942.1 ± 1.2
23098 kPa | 942.1 ± 1.2
23132 kPa | 942.1 ± 1.2
23161 kPa | 942.1 ± 1.2
23190 kPa | 942.1 ± 1.2
23224 kPa | 942.1 ± 1.2
23253 kPa | 942.1 ± 1.2
23281 kPa | 942.2 ± 1.2
23316 kPa | 942.2 ± 1.2
23344 kPa | 942.1 ± 1.2
23374 kPa | 942.3 ± 1.2
23409 kPa | 942.2 ± 1.2
23438 kPa | 942.4 ± 1.2
23468 kPa | 942.1 ± 1.2
23497 kPa | 942.3 ± 1.2
23532 kPa | 942.2 ± 1.2
23562 kPa | 942.4 ± 1.2
23597 kPa | 942.4 ± 1.2
23627 kPa | 942.3 ± 1.2
23656 kPa | 942.5 ± 1.2
23686 kPa | 942.4 ± 1.2
23722 kPa | 942.5 ± 1.2
23753 kPa | 942.5 ± 1.2
23777 kPa | 942.5 ± 1.2
23819 kPa | 942.5 ± 1.2
23849 kPa | 942.6 ± 1.2
23886 kPa | 942.6 ± 1.2
23916 kPa | 942.5 ± 1.2
23946 kPa | 942.5 ± 1.2
23984 kPa | 942.5 ± 1.2
24014 kPa | 942.6 ± 1.2
24045 kPa | 942.8 ± 1.2
24076 kPa | 942.6 ± 1.2
24113 kPa | 942.7 ± 1.2
24144 kPa | 942.6 ± 1.2
24182 kPa | 942.7 ± 1.2
24245 kPa | 942.8 ± 1.2
24283 kPa | 942.8 ± 1.2
24314 kPa | 942.8 ± 1.2
24345 kPa | 942.8 ± 1.2
24377 kPa | 942.9 ± 1.2
24415 kPa | 942.8 ± 1.2
24447 kPa | 942.9 ± 1.2
24480 kPa | 942.9 ± 1.2
24518 kPa | 943 ± 1.2
24550 kPa | 942.9 ± 1.2
24589 kPa | 943 ± 1.2
24622 kPa | 943.1 ± 1.2
24655 kPa | 943.1 ± 1.2
24688 kPa | 943.1 ± 1.2
24721 kPa | 943 ± 1.2
24761 kPa | 943.1 ± 1.2
24794 kPa | 943.1 ± 1.2
24828 kPa | 943.1 ± 1.2
24867 kPa | 943.1 ± 1.2
24894 kPa | 943.3 ± 1.2
24934 kPa | 943.3 ± 1.2
24961 kPa | 943.1 ± 1.2
24994 kPa | 943.2 ± 1.2
25028 kPa | 943.2 ± 1.2
25069 kPa | 943.3 ± 1.2
25097 kPa | 943.2 ± 1.2
25138 kPa | 943.4 ± 1.2
25185 kPa | 943.5 ± 1.2
25226 kPa | 943.3 ± 1.2
25260 kPa | 943.3 ± 1.2
25294 kPa | 943.5 ± 1.2
25335 kPa | 943.5 ± 1.2
25370 kPa | 943.5 ± 1.2
25404 kPa | 943.5 ± 1.2
25445 kPa | 943.6 ± 1.2
25480 kPa | 943.5 ± 1.2
25523 kPa | 943.6 ± 1.2
25553 kPa | 943.7 ± 1.2
25596 kPa | 943.5 ± 1.2
25632 kPa | 943.8 ± 1.2
25667 kPa | 943.6 ± 1.2
25703 kPa | 943.7 ± 1.2
25746 kPa | 943.8 ± 1.2
25781 kPa | 943.7 ± 1.2
25824 kPa | 943.7 ± 1.2
25860 kPa | 943.7 ± 1.2
25896 kPa | 943.8 ± 1.2
25933 kPa | 944 ± 1.2
25977 kPa | 943.9 ± 1.2
26014 kPa | 943.9 ± 1.2
26054 kPa | 943.9 ± 1.2
26091 kPa | 943.9 ± 1.2
26135 kPa | 943.9 ± 1.2
26172 kPa | 944 ± 1.2
26210 kPa | 944.2 ± 1.2
26247 kPa | 944.1 ± 1.2
26292 kPa | 944.1 ± 1.2
26329 kPa | 944.1 ± 1.2
26367 kPa | 944.2 ± 1.2
26412 kPa | 944.1 ± 1.2
26449 kPa | 944.1 ± 1.2
26495 kPa | 944.1 ± 1.2
26534 kPa | 944.1 ± 1.2
26573 kPa | 944 ± 1.2
26612 kPa | 944.2 ± 1.2
26696 kPa | 944.4 ± 1.2
26735 kPa | 944.4 ± 1.2
26781 kPa | 944.3 ± 1.2
26820 kPa | 944.4 ± 1.2
26859 kPa | 944.4 ± 1.2
26906 kPa | 944.4 ± 1.2
26945 kPa | 944.4 ± 1.2
26985 kPa | 944.4 ± 1.2
27032 kPa | 944.6 ± 1.2
27072 kPa | 944.4 ± 1.2
27113 kPa | 944.7 ± 1.2
